Experimental data: patent US20030100479A1, “Gene polymorphisms and response to treatment” (priority 2001, published 2003)
Entries after “also recorded” stand apart in the source; their conditions may differ.

Legend:
[1] = Clinical trial of GW320659: change in Food Craving Inventory (Total) score week 0 to week 24, by genotype; type: in vivo, human; details: for Change in Food Craving Inventory, mean response: 10 mg+15 mg; for Placebo adjusted mean change in Food Craving Inventory (Total) score: 15 mg dose group; for Mean change in Food Craving Inventory (Total) score: data not shown
From the text: (§1) Using genotyping methods as are well known in the art, genetic data were obtained from approximately 200 of more than 500 human subjects enrolled in a dose-ranging efficacy and safety study of GW320659 for weight loss (main study group; a randomized, double-blind, placebo controlled, dose-ranging clinical trial); GW320659 was used in conjunction with a mildly hypocaloric diet and brief weight management guidance. Subjects were between the ages of 18-65 years, with a Body Mass Index (BMI) of 30-40, and were not on any psychotropic medications or other anti-obesity medications. Subjects were randomized into one of five treatment groups: placebo or GW320659 at 2.5 mg/day, 5 mg/day, 10 mg/day, or 15 mg/day (oral administration). In the main study group, for the GW320659 15 mg/day dosage, average weight loss was approximately 3.7 kg (108 subjects; data not shown).
(§2) Subjects were assessed for various parameters, including absolute change in body weight from week 0 to week 24 of the study; supine heart rate, diastolic blood pressure and systolic blood pressure at multiple predetermined time-points across the study; and change in Food Craving Inventory (Total) score from week 0 to week 24.
The endpoint of Change in Food Craving Inventory (total score) was analyzed with the same methods.
The Food Craving Inventory used was a validated scale developed at Louisiana State University. It is a scale of 37 items designed to measure food cravings for specific foods. For each item the subject is asked “Over the past month, how often have you experienced a craving for the food?”. Possible responses were Never, Rarely, Sometimes, Often, and Always. These responses were converted to ordinal scores (1, 2, 3, 4, 5). The mean total score was computed for each patient. Change from baseline mean scores were analyzed. Possible range for this measure was −4 to 4; a negative number indicates a decrease in cravings.
The change in Food Craving Inventory was assessed by grouping low dose treatments together (2.5+5 mg treatments) and higher dose treatments together (10 mg+15 mg), and comparing to placebo, using a p-value threshold set at […] (the minimum level necessary to get further automatic splits). The software then determined the remaining splits for the 10 mg+15 mg group. The splits found in the 10+15 mg group were then manually duplicated for the lower dose group (2.5+5 mg) for comparison purposes. As an example, for the 10 mg+15 mg treatment doses, the mean response for subjects with genotype 1, 2 or 2,2 for the NET1 C120A genetic marker and a baseline weight greater than 86.6 kg, was −0.55 (std=0.37 n=49). FIG. 11. For all subjects not in the defined subgroup, mean response was −0.02 (std=0.60, n=25).

[2] = Clinical trial of GW320659: change in supine systolic blood pressure (time-adjusted AUC), by genotype; type: in vivo, human
From the text: as §1, with “Subjects were randomized into one of five treatment groups: placebo or GW320659 at 2.5 mg/day, 5 mg/day, 10 mg/day, or 15 mg/day (oral administration). In the main study group, for the GW320659 15 mg/day dosage, average weight loss was approximately 3.7 kg (108 subjects; data not shown).” left out
as §2
Analyses of changes in cardiovascular endpoints (HR, SBP, DBP, all measured in supine subjects) were conducted individually for each of the polymorphic sites, and analyzed as follows. Vital sign assessments at all post-baseline visits were analyzed utilizing a repeated measures (mixed) ANOVA model. Genotype by treatment interactions were assessed. […]

[3] = Clinical trial of GW320659: change in supine diastolic blood pressure (time-adjusted AUC), by genotype; type: in vivo, human
From the text: as §1, §2
Analyses of changes in cardiovascular endpoints (HR, SBP, DBP, all measured in supine subjects) were conducted individually for each of the polymorphic sites, and analyzed as follows. Vital sign assessments at all post-baseline visits were analyzed utilizing a repeated measures (mixed) ANOVA model. Genotype by treatment interactions were assessed. The following model was used.
If the treatment by time interaction was non-significant, the corresponding term was planned to be removed from the model, prior to assessing treatment by genotype interaction. Subsequently, this term was removed for all vital signs analyses. In addition, vital signs data was analyzed utilizing a time-weighted area under the curve (adjusted for baseline) analysis. Model #2 (used for the efficacy analyses) was employed for these analyses.
Supine heart rate (HR), supine systolic blood pressure (SBP) and supine diastolic blood pressure (DBP) were assessed at various fixed intervals across the duration of the study. Summaries and analyses were conducted on the “area under the curve” (AUC) values (adjusted for time on study and baseline). All reported p-values in this section refer to AUC analyses, using Model No.2 as described above.
Accordingly, for some recursive partioning analysis the treatment groups were split in this manner (15 mg versus all other groups). The p-value threshold was set 0.10 (the minimum level necessary to get further automatic splits). The software then determined the remaining splits for the 15 mg group. […]

norepinephrine uptake = details: Kelley et al., J. Med. Chem. 39:347 (1996); cited from earlier work
dopamine reuptake = details: Kelley et al., J. Med. Chem. 39:347 (1996); cited from earlier work
[4] = subgroup 2/2 NET1T342C and/or 2/2 NET1G155A and/or 2/2 NR1G6435A, 10 mg/day+15 mg/day, 26 subjects
[5] = NET1 T342C (2,2) and without DRD2 C12121T (2,2), 10 mg/day or 15 mg/day

## C[C@@H]1CO[C@@](O)(c2cc(F)cc(F)c2)[C@H](C)N1.Cl [GW320659, (2S,3S,5R)-2-(3,5-difluorophenyl)-3,5-dimethyl-2-morpholinol]
[1]; NET1 C120A genotype 1,2 or 2,2 and baseline weight greater than 86.6 kg, std=0.37 n=49
  Change in Food Craving Inventory, mean response: −0.55
[1]; all subjects not in the defined subgroup, std=0.60, n=25
  Change in Food Craving Inventory, mean response: −0.02
[1]; 5HTT G160A 2,2 genotype, scale range −4 to 4
  Placebo adjusted mean change in Food Craving Inventory (Total) score: 0.7
[1]; DRD2 C12121T 1,1 genotype, 15 mg dose
  Mean change in Food Craving Inventory (Total) score: −0.7
[1]; DRD2 C20236T 2,2 genotype, 15 mg dose
  Mean change in Food Craving Inventory (Total) score: −0.7
[1]; NET1 C120A genotype 1,1
  Placebo adjusted mean change in Food Craving Inventory (Total) score: 0.2
[1]; NET1 C120A genotype 1,2
  Placebo adjusted mean change in Food Craving Inventory (Total) score: −0.4
[1]; NET1 C120A genotype 2,2
  Placebo adjusted mean change in Food Craving Inventory (Total) score: −0.4
[1]; NET1 T342C 2,2 genotype, 10 mg dose
  Mean change in Food Craving Inventory (Total) score: −0.7
[1]; [4]
  Mean change in Food Craving Inventory (Total): −0.528
[2]; [5]
  Changes in systolic blood pressure compared to subjects with alternate genotypes: decreased changes in heart rate and blood pressure; also recorded: comparatively small changes in HR, SBP and DBP
[2]; [4]
  Systolic Blood Pressure (mean time adjusted change): 0.9733
[3]; [5]
  Changes in diastolic blood pressure compared to subjects with alternate genotypes: decreased changes in heart rate and blood pressure; also recorded: comparatively small changes in HR, SBP and DBP
[3]; subgroup 2,2 for NET1T342C and/or NET1G155A and/or NR1G6435A, 10 mg and 15 mg combined
  Mean rise in DBP: 2.4 mmHG
[3]; subgroup 2,2 for NET1T342C and/or NET1G155A and/or NR1G6435A, 10 mg/day+15 mg/day, not significantly different from placebo
  Overall mean time-adjusted change in Diastolic Blood Pressure, mean rise: 2.4 mm Hg
[3]; [4]
  Diastolic Blood Pressure (mean time adjusted change): 2.431
Norepinephrine uptake
  Inhibition of norepinephrine uptake: potent, selective inhibitor of norepinephrine uptake
Dopamine reuptake
  Inhibition of dopamine reuptake: weaker reuptake inhibition effects on dopamine reuptake
